One assay has as its target integrin a4b7 (Homo sapiens (Human), UniProt P13612+P26010). Briefly: a4b7 solid phase receptor assay (SPRA). The following applies: recombinant human a4b7 binding to plate-coated human VCAM1 (TABLE 4).
Assay [1] has as its system hematopoietic stem/progenitor cells (HSPCs). Briefly: HSPC mobilization into peripheral blood, colony forming unit (CFU) assay. The following applies: mice.
In another assay the target is VLA-4 (a4b1) (Homo sapiens (Human), UniProt P05556+P13612). As to the kind of experiment: sVCAM flow cytometry cell-based assay (inhibition of soluble VCAM-1 binding to G2 ALL cells). (In general: In flow cytometry, cells or beads pass a laser one at a time.);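 note: compounds at 0.1 to 1000 nM preincubated 30 min with G2 ALL cells, then VCAM/Fc added for 30 min, bound VCAM-1 detected by PE secondary antibody, percent binding cells by flow cytometry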
VLA-4 (a4b1), sequence (P13612 34-1032): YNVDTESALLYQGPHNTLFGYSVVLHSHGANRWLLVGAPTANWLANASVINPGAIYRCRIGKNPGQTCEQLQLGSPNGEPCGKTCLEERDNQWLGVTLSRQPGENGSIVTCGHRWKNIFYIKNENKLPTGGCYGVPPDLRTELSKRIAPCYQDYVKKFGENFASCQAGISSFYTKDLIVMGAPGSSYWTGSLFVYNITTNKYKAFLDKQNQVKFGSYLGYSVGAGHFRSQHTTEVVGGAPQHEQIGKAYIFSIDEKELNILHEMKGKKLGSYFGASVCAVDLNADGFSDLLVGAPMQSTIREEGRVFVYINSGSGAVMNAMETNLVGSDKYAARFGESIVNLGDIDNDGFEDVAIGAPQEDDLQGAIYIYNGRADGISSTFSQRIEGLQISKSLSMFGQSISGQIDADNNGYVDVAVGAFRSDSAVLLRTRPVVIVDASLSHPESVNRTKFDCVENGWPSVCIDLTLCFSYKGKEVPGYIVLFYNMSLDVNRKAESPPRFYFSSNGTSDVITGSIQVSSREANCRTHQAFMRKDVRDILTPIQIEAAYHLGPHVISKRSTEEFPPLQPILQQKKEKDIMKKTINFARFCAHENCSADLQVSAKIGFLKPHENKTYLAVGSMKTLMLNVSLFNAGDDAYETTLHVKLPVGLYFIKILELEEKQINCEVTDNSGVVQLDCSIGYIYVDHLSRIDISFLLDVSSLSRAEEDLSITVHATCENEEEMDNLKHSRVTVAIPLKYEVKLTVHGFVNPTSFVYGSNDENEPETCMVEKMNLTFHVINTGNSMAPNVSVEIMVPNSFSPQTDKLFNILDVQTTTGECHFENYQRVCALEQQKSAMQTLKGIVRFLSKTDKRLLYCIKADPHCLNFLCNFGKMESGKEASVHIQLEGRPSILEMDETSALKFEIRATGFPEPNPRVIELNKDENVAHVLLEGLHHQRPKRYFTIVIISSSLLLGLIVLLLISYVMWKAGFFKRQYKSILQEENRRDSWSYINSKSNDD
VLA-4 (a4b1), sequence (P05556 21-798): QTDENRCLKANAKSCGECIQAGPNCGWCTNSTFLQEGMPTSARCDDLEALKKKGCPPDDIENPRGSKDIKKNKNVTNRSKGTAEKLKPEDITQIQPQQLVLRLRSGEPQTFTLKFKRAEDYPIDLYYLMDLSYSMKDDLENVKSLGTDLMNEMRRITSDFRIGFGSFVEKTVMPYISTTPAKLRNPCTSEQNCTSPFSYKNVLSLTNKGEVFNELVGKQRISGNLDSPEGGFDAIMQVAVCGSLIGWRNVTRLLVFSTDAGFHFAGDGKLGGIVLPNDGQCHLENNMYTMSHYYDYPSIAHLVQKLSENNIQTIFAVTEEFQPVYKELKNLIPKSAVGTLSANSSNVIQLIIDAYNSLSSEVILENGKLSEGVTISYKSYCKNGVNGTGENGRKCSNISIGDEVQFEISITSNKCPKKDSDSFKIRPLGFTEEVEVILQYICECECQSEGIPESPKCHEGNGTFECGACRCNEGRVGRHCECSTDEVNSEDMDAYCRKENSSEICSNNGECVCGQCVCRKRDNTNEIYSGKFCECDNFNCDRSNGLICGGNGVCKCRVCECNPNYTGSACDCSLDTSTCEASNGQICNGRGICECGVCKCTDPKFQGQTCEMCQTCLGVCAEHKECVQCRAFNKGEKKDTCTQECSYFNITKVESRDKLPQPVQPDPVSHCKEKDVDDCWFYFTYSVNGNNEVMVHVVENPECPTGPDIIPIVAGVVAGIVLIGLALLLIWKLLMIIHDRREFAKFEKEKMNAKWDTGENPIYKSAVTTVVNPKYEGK
Where [2] appears, read: single dose, peripheral blood, 2 hr post dose (TABLE 9).
Setting [3] is: single dose, peripheral blood, 2 hr post dose (TABLE 10).
Setting [4] is: single dose, peripheral blood, 4 hr post dose (TABLE 9).
Where [5] appears, read: single dose, peripheral blood, 4 hr post dose (TABLE 10).
[6] abbreviates: single dose, peripheral blood, 6 hr post dose (TABLE 9).
[7] abbreviates: single dose, peripheral blood, 6 hr post dose (TABLE 10).
The mark [8] stands for this setting: as listed in TABLE 9, read-out: sVCAM IC50.
Setting [9] is: as listed in TABLE 10, read-out: sVCAM IC50.
The mark [10] stands for this setting: inhibition of sVCAM-1 binding to human G2 ALL cells (TABLE 3), read-out: SVCAM-1, IC50.

Where two headings read alike, the source gives them in different places.

integrin a4b7, sequence (P13612 34-970): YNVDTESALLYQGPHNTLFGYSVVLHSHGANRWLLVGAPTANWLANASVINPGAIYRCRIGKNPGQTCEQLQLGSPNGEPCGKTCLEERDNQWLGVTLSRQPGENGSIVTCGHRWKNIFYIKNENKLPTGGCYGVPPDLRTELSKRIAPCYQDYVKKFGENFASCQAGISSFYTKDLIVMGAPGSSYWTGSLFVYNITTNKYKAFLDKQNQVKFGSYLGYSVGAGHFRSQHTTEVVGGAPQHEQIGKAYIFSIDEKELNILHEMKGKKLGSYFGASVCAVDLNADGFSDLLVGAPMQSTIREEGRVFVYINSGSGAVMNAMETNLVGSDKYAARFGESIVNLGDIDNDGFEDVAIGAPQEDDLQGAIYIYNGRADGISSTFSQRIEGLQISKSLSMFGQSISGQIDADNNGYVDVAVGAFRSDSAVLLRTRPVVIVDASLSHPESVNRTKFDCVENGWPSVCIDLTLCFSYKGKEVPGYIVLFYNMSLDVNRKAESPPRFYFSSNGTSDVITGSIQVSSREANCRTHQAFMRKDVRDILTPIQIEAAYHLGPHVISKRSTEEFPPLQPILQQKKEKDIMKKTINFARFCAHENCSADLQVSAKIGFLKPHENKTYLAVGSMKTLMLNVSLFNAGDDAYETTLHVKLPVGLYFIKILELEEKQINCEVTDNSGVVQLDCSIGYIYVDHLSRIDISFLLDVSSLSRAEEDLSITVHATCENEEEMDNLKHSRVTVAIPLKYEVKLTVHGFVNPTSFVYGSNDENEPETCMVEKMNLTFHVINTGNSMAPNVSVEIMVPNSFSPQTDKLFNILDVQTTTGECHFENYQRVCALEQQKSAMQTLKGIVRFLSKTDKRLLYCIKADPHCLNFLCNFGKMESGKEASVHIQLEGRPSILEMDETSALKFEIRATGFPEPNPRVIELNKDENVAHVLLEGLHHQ
integrin a4b7, sequence (P26010 20-723): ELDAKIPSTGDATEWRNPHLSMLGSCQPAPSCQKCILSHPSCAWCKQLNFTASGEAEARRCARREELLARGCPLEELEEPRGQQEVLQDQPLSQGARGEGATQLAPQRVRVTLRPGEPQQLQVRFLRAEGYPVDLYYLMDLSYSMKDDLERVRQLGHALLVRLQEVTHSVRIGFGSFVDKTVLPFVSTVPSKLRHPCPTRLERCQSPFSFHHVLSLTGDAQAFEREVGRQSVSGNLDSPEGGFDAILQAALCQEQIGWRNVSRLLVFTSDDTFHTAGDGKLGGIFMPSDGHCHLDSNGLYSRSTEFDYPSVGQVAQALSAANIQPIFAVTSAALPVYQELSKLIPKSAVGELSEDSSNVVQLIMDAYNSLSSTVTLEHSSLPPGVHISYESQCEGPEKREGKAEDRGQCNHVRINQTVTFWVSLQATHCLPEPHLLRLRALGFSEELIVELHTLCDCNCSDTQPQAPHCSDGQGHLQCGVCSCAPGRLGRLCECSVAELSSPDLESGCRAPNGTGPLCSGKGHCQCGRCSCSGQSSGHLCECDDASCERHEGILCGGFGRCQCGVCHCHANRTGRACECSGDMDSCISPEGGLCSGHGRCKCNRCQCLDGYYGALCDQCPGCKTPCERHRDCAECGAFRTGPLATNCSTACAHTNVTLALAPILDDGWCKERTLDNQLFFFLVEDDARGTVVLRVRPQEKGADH
Method for integrin a4b7: Wells were washed 3 times with TBS+ and blocking buffer (TBS+ with 1% bovine serum albumin), the plate was incubated for 1 hr at 37° C., and then washed 3× with TBS+ buffer. Recombinant human a4b7 (R & D Systems) was diluted to 1 μg/ml in TBS+/0.1% bovine serum albumin. Test compounds were diluted into the integrin solution and added to the washed ligand-coated plate according to a standard template with each sample repeated in triplicate. After incubation for 2 hr at room temperature, the plate was washed 3× with 150 μl of TBS+ buffer. To each well, biotinylated anti-A4 antibody (R & D Systems) at 1 μg/ml in TBS+/0.1% BSA was added and the plate covered and incubated for 1 hr at room temperature. After washing the plate 3× with TBS+ buffer, streptavidin-conjugated horseradish peroxidase (R & D Systems) diluted in TBS+ blocking buffer was added to the wells and the plate incubated for 20 min at room temperature. The plate was washed 3× with TBS+ buffer followed by addition of 50 μl of TMB substrate (Sigma T4444). After incubation for 20 min at room temperature, plates were stopped with TMB stop solution (Sigma S5689) by colorimetric detection at 450 nm wavelength using a Tecan Safire II plate reader.

As for `Cc1ccccc1NC(=O)Nc1ccc(CC(=O)N(C)[C@@H](CC(C)C)C(=O)NCC[C@H](NC(=O)[C@@H]2CCCN2S(=O)(=O)c2cc(Cl)cc(Cl)c2)C(=O)O)cc1` [BIO5192], the IC50 on integrin a4b7 is more than 10000 nM.
For `COCCOCCOCCOCCOCCOCCOCCOCCOCCOCCOCCOCCOCCOCCOCCOCCOCCOCCOCCOCCOCCOCCOCCOCCOCc1cc(OC)c(-c2ccc(C[C@H](NC(=O)[C@@H]3CCCN3S(=O)(=O)c3cc(Cl)cc(Cl)c3)C(=O)O)cc2)c(OC)c1` [Example 1], the “HSPC mobilization in the triple combination regimen with plerixafor and truncated Groβ” value in assay [1] is “high degree of extended mobilization”. The “No. CFU (×10^3)/mL ± SD, 2 hr” value in assay [1] (alone or in combination with Plerixafor and tGroβ, peripheral blood, 2 hr (TABLE 17)) was 5.69 ± 2.57 (×10^3)/mL; in assay [1] (single dose alone or in combination with AMD3100 (5 mg/kg s.c.), peripheral blood, 2 hr (TABLE 14)) it was 5.94 ± 4.52 (×10^3)/mL; in assay [1] (single dose, peripheral blood, 2 hr post dose (TABLE 7)) it was 2.12 ± 1.04 (×10^3)/mL; in assay [1] (single dose, peripheral blood, 2 hr post dose (TABLE 8)) it was 4.79 ± 2.05 (×10^3)/mL; in assay [1] (setting [2]), 4.72 ± 1.19 (×10^3)/mL; in assay [1] (setting [3]), 4.18 ± 1.99 (×10^3)/mL. Moreover, the “No. CFU (×10^3)/mL ± SD, 4 hr” value in assay [1] (alone or in combination with Plerixafor and tGroβ, peripheral blood, 4 hr (TABLE 17)) was 4.82 ± 1.07 (×10^3)/mL; in assay [1] (single dose, peripheral blood, 4 hr post dose (TABLE 7)) it was 2.30 ± 0.25 (×10^3)/mL; in assay [1] (single dose, peripheral blood, 4 hr post dose (TABLE 8)), 4.43 ± 0.66 (×10^3)/mL; in assay [1] (setting [4]) it was 5.00 ± 1.26 (×10^3)/mL; in assay [1] (setting [5]), 4.41 ± 0.89 (×10^3)/mL; in assay [1] (single dose, peripheral blood, 4 hr post dose (TABLE 18)), 5.18 ± 1.99 (×10^3)/mL. In addition, the “No. CFU (×10^3)/mL ± SD, 6 hr” value in assay [1] (alone or in combination with Plerixafor and tGroβ, peripheral blood, 6 hr (TABLE 17)) is 2.97 ± 0.65 (×10^3)/mL; in assay [1] (setting [6]), 1.84 ± 0.63 (×10^3)/mL; in assay [1] (setting [7]), 1.78 ± 0.38 (×10^3)/mL. In assay [1] (single dose), the “HSPC mobilization, result in words” value is on record as “significant HSPC mobilization at 4 hours”. Further, the “No. CFU (×10^3)/mL ± SD, 3 hr” value in assay [1] (single dose alone or in combination with AMD3100 (5 mg/kg s.c.), peripheral blood, 3 hr (TABLE 14)) was 6.42 ± 4.64 (×10^3)/mL. In addition, the “No. CFU (×10^3)/mL ± SD, 5 hr” value in assay [1] (single dose alone or in combination with AMD3100 (5 mg/kg s.c.), peripheral blood, 5 hr (TABLE 14)) is 5.02 ± 1.67 (×10^3)/mL. The “No. CFU (x10^3)/mL ± SD, 4 hr” value is 2.65 ± 1.15 (x10^3)/mL in assay [1] (single dose alone or in combination with Plerixafor (5 mg/kg s.c.), peripheral blood, 4 hr (TABLE 15)); 4.14 ± 1.31 (x10^3)/mL in assay [1] (single dose, peripheral blood, 4 hr post dose (TABLE 11)); 3.38 ± 0.21 (x10^3)/mL in assay [1] (single injection, peripheral blood, 4 hr post dose (TABLE 12)). In addition, the “No. CFU (x10^3)/mL ± SD, 6 hr” value is given as 1.43 ± 0.56 (x10^3)/mL in assay [1] (single dose alone or in combination with Plerixafor (5 mg/kg s.c.), peripheral blood, 6 hr (TABLE 15)); 2.20 ± 0.63 (x10^3)/mL in assay [1] (single dose, peripheral blood, 6 hr post dose (TABLE 11)); 2.87 ± 0.39 (x10^3)/mL in assay [1] (single injection, peripheral blood, 6 hr post dose (TABLE 12)). In addition, the “No. CFU (x10^3)/mL ± SD, 24 hr” value is reported as 0.22 ± 0.10 (x10^3)/mL in assay [1] (single dose alone or in combination with Plerixafor (5 mg/kg s.c.), peripheral blood, 24 hr (TABLE 15)) and 0.29 ± 0.11 (x10^3)/mL in assay [1] (single dose, peripheral blood, 24 hr post dose (TABLE 11)). In addition, the “effect on extended HSPC mobilization in combination with a single dose of the CXCR4 inhibitor AMD3100 (Plerixafor)” value in assay [1] (single dose of each agent) is “synergistic effects”. Moreover, in assay [1] (single dose, peripheral blood, 0.25 hr post dose (TABLE 8)), the “No. CFU (×10^3)/mL ± SD, 0.25 hr” value is on record as 4.10 ± 1.53 (×10^3)/mL. Moreover, the “No. CFU (×10^3)/mL ± SD, 0.5 hr” value in assay [1] (single dose, peripheral blood, 0.5 hr post dose (TABLE 7)) is recorded as 1.22 ± 0.35 (×10^3)/mL. The “No. CFU (x10^3)/mL ± SD, 2 hr” value is on record as 3.14 ± 0.63 (x10^3)/mL in assay [1] (single dose, peripheral blood, 2 hr post dose (TABLE 11)) and 4.72 ± 0.33 (x10^3)/mL in assay [1] (single injection, peripheral blood, 2 hr post dose (TABLE 12)). In addition, in assay [1] (single dose, peripheral blood, 8 hr post dose (TABLE 18)), the “No. CFU (×10^3)/mL ± SD, 8 hr” value is 2.00 ± 0.66 (×10^3)/mL. The “No. CFU (×10^3)/mL ± SD, 24 hr” value in assay [1] (single dose, peripheral blood, 24 hr post dose (TABLE 18)) was 0.46 ± 0.30 (×10^3)/mL. For the same compound, in assay [1] (single injection, peripheral blood, 8 hr post dose (TABLE 12)), the “No. CFU (x10^3)/mL ± SD, 8 hr” value is 1.12 ± 0.48 (x10^3)/mL. Also, the IC50 on integrin a4b7 came to 5.6 nM; on VLA-4 (a4b1) (as listed in TABLE 7, read-out: sVCAM IC50) it was 0.373 nM; on VLA-4 (a4b1) (as listed in TABLE 8, read-out: sVCAM IC50) it was 0.373 nM; on VLA-4 (a4b1) (setting [8]), 0.373 nM; on VLA-4 (a4b1) (setting [9]), 0.373 nM; at VLA-4 (a4b1) (as listed in TABLE 11, read-out: sVCAM IC50) it was 0.373 nM. Also, the IC50 is 0.373 nM at VLA-4 (a4b1) (as listed in TABLE 12, read-out: sVCAM IC50); 0.373 nM at VLA-4 (a4b1) (as listed in TABLE 14, read-out: sVCAM IC50); 0.373 nM at VLA-4 (a4b1) (as listed in TABLE 15, read-out: sVCAM IC50); 0.373 nM on VLA-4 (a4b1) (as listed in TABLE 17, read-out: sVCAM IC50); 0.373 nM on VLA-4 (a4b1) (as listed in TABLE 18, read-out: sVCAM IC50); 0.373 nM on VLA-4 (a4b1) (setting [10]).
On to `COCCOCCOCCOCCOCCOCCOCCOCCOCCOCCOCCOCCOCCOCCOCCOCCOCCOCCOCCOCCOCCOCCOCCOCCOCCOCCOCCOCCOCCOCCOCCOCCOCCOCCOCCOCCOCc1cc(OC)c(-c2ccc(C[C@H](NC(=O)[C@@H]3CCCN3S(=O)(=O)c3cc(Cl)cc(Cl)c3)C(=O)O)cc2)c(OC)c1` [Example 2], for which the “No. CFU (×10^3)/mL ± SD, 2 hr” value is recorded as 4.10 ± 1.40 (×10^3)/mL in assay [1] (setting [2]) and 4.42 ± 1.41 (×10^3)/mL in assay [1] (setting [3]). Further, the “No. CFU (×10^3)/mL ± SD, 4 hr” value is 4.98 ± 1.88 (×10^3)/mL in assay [1] (setting [4]) and 3.59 ± 0.93 (×10^3)/mL in assay [1] (setting [5]). In addition, the “No. CFU (×10^3)/mL ± SD, 6 hr” value in assay [1] (setting [6]) was 1.87 ± 0.58 (×10^3)/mL; in assay [1] (setting [7]), 2.12 ± 0.84 (×10^3)/mL. Moreover, the IC50 is 5.4 nM at integrin a4b7, 0.833 nM on VLA-4 (a4b1) (setting [8]), 0.833 nM at VLA-4 (a4b1) (setting [9]) and 0.833 nM on VLA-4 (a4b1) (setting [10]).
